{"source": "patent US20170235917A1", "about": "“SYSTEMS AND METHODS FOR MONITORING AND CONTROLLING A CARD[…] OF A SUBJECT” (THE GENERAL HOSPITAL CORPORATION, priority 2014, published 2017)", "key": {"[1]": {"details": "range across four pooled subject groups, cited from earlier work"}, "[2]": {"details": "for 1/τ (inverse time constant of drug distribution and equilibration) / tD (delay): mean ± SD, five piglets", "description": "Five neonatal Yorkshire Duroc piglets of 10+/−3 d of age weighting 2.4+/−0.6 kg were pre-anesthetized with ketamine (33 mg/kg) and atropine (0.05 mg/kg), intubated, and anesthetized using 1.5-3.0% isoflurane while mechanically ventilated. Core body temperature was kept at 38+/−0.5° C. BP, HR, arterial O2 saturation, end-tidal CO2, fraction of inspired O2, and pulmonary compliance were continuously monitored. HR beyond 250 bpm was captured using the PC-Vet wireless ECG system or direct counting. The animals received intravenous heparin (200 units/kg/h), physiologic saline (10 mL/kg/h), and 10 g/dL of dextrose-water to adjust serum glucose levels using Genie Plus syringe pumps validated for stability of infusion rate. Serum electrolytes, base excess (−6 to +6), pH (7.20-7.45), partial arterial O2 pressure (80-120 mmHg) and partial arterial CO2 pressure (35-45 mmHg), and arterial O2 saturation (90-100%) were maintained in the target ranges using sodium bicarbonate, potassium chloride, lactated Ringer's solution, and ventilatory changes, respectively. Both femoral veins and left femoral artery were cannulated for fluid and drug administration, and arterial BP measurements and blood sampling, respectively. […] The baseline measurements were recorded after a 15-min postsurgical stabilization period, followed by the escalation of dose, and a 15-min washout period after the discontinuation of the medication. […] To deduce the rate of change of the hemodynamic parameters, the data obtained were subdivided into baseline, low dose (0.25 mcg/kg/min), medium dose (0.5 and 0.75 mcg/kg/min) and high dose (1, 1.5 and 2 mcg/kg/min). BP and HR were collected in real time at a sampling rate of 0.2 Hz."}}, "note": "Where two headings read alike, the source gives them in different places."}
{"compound": "CNC[C@H](O)c1ccc(O)c(O)c1", "note": "[epinephrine]", "values": [{"measurement": "DBP", "setting": "[1]; epinephrine 020 ng/kg/min", "value": "69-88 mmHg"}, {"measurement": "HR", "setting": "[1]; epinephrine 020 ng/kg/min", "value": "64-69 bpm"}, {"measurement": "MAP", "setting": "[1]; epinephrine 020 ng/kg/min", "value": "83-110 mmHg"}, {"measurement": "SBP", "setting": "[1]; epinephrine 020 ng/kg/min", "value": "112-153 mmHg"}, {"measurement": "SVI", "setting": "[1]; epinephrine 020 ng/kg/min", "value": "54-65 ml/m^2"}, {"measurement": "DBP", "setting": "[1]; epinephrine 040 ng/kg/min", "value": "66-83 mmHg"}, {"measurement": "HR", "setting": "[1]; epinephrine 040 ng/kg/min", "value": "68-73 bpm"}, {"measurement": "MAP", "setting": "[1]; epinephrine 040 ng/kg/min", "value": "82-106 mmHg"}, {"measurement": "SBP", "setting": "[1]; epinephrine 040 ng/kg/min", "value": "114-153 mmHg"}, {"measurement": "SVI", "setting": "[1]; epinephrine 040 ng/kg/min", "value": "55-68 ml/m^2"}, {"measurement": "DBP", "setting": "[1]; epinephrine 080 ng/kg/min", "value": "62-79 mmHg"}, {"measurement": "HR", "setting": "[1]; epinephrine 080 ng/kg/min", "value": "71-76 bpm"}, {"measurement": "MAP", "setting": "[1]; epinephrine 080 ng/kg/min", "value": "83-105 mmHg"}, {"measurement": "SBP", "setting": "[1]; epinephrine 080 ng/kg/min", "value": "124-158 mmHg"}, {"measurement": "SVI", "setting": "[1]; epinephrine 080 ng/kg/min", "value": "58-71 ml/m^2"}, {"measurement": "DBP", "setting": "[1]; epinephrine 120 ng/kg/min", "value": "61-79 mmHg"}, {"measurement": "HR", "setting": "[1]; epinephrine 120 ng/kg/min", "value": "72-81 bpm"}, {"measurement": "MAP", "setting": "[1]; epinephrine 120 ng/kg/min", "value": "84-109 mmHg"}, {"measurement": "SBP", "setting": "[1]; epinephrine 120 ng/kg/min", "value": "132-168 mmHg"}, {"measurement": "SVI", "setting": "[1]; epinephrine 120 ng/kg/min", "value": "59-74 ml/m^2"}, {"measurement": "DBP", "setting": "[1]; epinephrine 160 ng/kg/min", "value": "61-80 mmHg"}, {"measurement": "HR", "setting": "[1]; epinephrine 160 ng/kg/min", "value": "75-79 bpm"}, {"measurement": "MAP", "setting": "[1]; epinephrine 160 ng/kg/min", "value": "86-109 mmHg"}, {"measurement": "SBP", "setting": "[1]; epinephrine 160 ng/kg/min", "value": "136-170 mmHg"}, {"measurement": "SVI", "setting": "[1]; epinephrine 160 ng/kg/min", "value": "59-77 ml/m^2"}, {"measurement": "1/τ (inverse time constant of drug distribution and equilibration)", "setting": "[2]; X = H (HR)", "value": "4.1e−3 ± 4.5e−3"}, {"measurement": "tD (delay)", "setting": "[2]; X = R (TPR)", "value": "48.6 ± 17.6", "unit": "s"}, {"measurement": "1/τ (inverse time constant of drug distribution and equilibration)", "setting": "[2]; X = δV (SV)", "value": "0.01 ± 0.02"}, {"measurement": "tD (delay)", "setting": "[2]; X = δV (SV)", "value": "29.1 ± 26.1", "unit": "s"}, {"measurement": "HR increase as share of its maximum response", "setting": "[2]; after the first dose escalation (0.25 mcg/kg/min), averaged over five piglets", "value": 55, "unit": "%"}, {"measurement": "HR at which the response starts to saturate", "setting": "[2]; doses of 1-2 mcg/kg/min, one particular piglet", "value": "around 400 bpm"}, {"measurement": "MAP response", "setting": "[2]; from the low-dose range, averaged over five piglets (FIG. 10)", "value": "persistently increases"}]}
